We go through 20 compounds from ChEMBL document CHEMBL4359930, “Discovery of novel Cyclophilin D inhibitors starting from three dimensional fragments with millimolar potencies” (Bioorg Med Chem Lett, 2019).

The experiment can be described thus: Binding affinity to recombinant human CypD K175I mutant (44 to 207 residues) expressed in Escherichia coli cells assessed as dissociation constant by SPR analysis.

In the case of `Cc1onc(-c2ccncc2)c1C(=O)O`, the dissociation constant (Kd) (usually the constant that tells how readily two partners part at equilibrium) was above 10000 µM.
With `CCN1Cc2cc3c(cc2NCCC1=O)OCO3` the figure was 7500 µM; with `O=C(NCc1ccc2c(c1)[C@@H]1C[C@H](N2)[C@H](O)CO1)C(=O)N1CCCC1`, 217 µM; with `Nc1ccc(CCNC(=O)CN2C(=O)C3C4CCC(C4)C3C2=O)cc1` (stereo not given), above 200 µM.
The same measure for `CSc1ccccc1[C@H]1CCCN1C(=O)CN(C)C(=O)NCc1ccc2c(c1)[C@H]1C[C@@H](N2)[C@H](O)CO1`: 7 µM.
The same measure for `CSc1ccccc1[C@H]1CCCN1C(=O)C(=O)NCc1ccc2c(c1)[C@H]1C[C@@H](N2)[C@H](O)CO1`: 184 µM.
For the compound `CSc1ccccc1[C@H]1CCCN1C(=O)CNC(=O)CCc1ccc2c(c1)[C@@H]1C[C@H](N2)[C@H](O)CO1`, the equilibrium dissociation constant (Kd) was found to be 39 µM.
With `O=C(NCc1ccccn1)C(=O)NC1CCCC1` the figure was 1100 µM.
With `CCN1Cc2cc(CNC(=O)NCC(=O)N3CCC[C@@H]3c3ccccc3SC)ccc2NCCC1=O` the figure was 0.18 µM.
As for `CCn1nnc(NC(=O)c2ccccc2)n1`, the Kd was determined as 3900 µM.
The same measure for `CCN1Cc2cc(NC(=O)CN3C(=O)C4C(C3=O)[C@H]3CC[C@@H]4C3)ccc2NCCC1=O` (stereo not given in full): above 6000 µM; for `O=C(CN1C(=O)[C@@H]2[C@@H]3CC[C@@H](C3)[C@@H]2C1=O)NCc1ccc2c(c1)[C@H]1C[C@@H](N2)[C@H](O)CO1`: 0.66 µM.
The same measure for `CCN1Cc2cc(CCC(=O)NCCC(=O)N3CCC[C@@H]3c3ccccc3SC)ccc2NCCC1=O`: 420 µM; for `CCN1Cc2cc(NC(=O)NCC(=O)N3CCC[C@@H]3c3ccccc3SC)ccc2NCCC1=O`: 260 µM; for `O=C(CN1C(=O)[C@@H]2[C@H]3CC[C@H](C3)[C@@H]2C1=O)NCc1ccc2c(c1)[C@H]1C[C@@H](N2)[C@H](O)CO1`: 1.2 µM.
With `CCN1Cc2cc(CCC(=O)NCC(=O)N3CCC[C@@H]3c3ccccc3SC)ccc2NCCC1=O` the figure was 2.3 µM; with `O[C@@H]1CO[C@@H]2C[C@H]1Nc1ccc(F)cc12`, 7100 µM.
On to `O=C(O)CN1C(=O)[C@@H]2[C@@H]3CC[C@@H](C3)[C@@H]2C1=O`, for which the Kd was above 10000 µM.
For the compound `CSc1ccccc1[C@@H]1CCCN1C(=O)C(=O)NCc1ccc2c(c1)[C@H]1C[C@@H](N2)[C@H](O)CO1`, the Kd is above 240 µM.
With `O=C(NCc1ccc2c(c1)[C@H]1C[C@@H](N2)[C@H](O)CO1)C(=O)N1CCCC1` the figure was above 1500 µM.
